IC50, EC50 and inhibition data for 13 compounds are collected here from patent publication US9155743B2, “Bicyclic heterocycle compounds and their uses in therapy” (priority 2011, dated 2015).

Structures can show the parent of a compound that is named as a salt. Where two headings read alike, the source gives them in different places. Where only a bound is given, the exact number is not on record here.

One test deals with XIAP BIR3 domain (Homo sapiens (Human), UniProt P98170). Description: XIAP in vitro competitive displacement binding assay (fluorescence polarization). Conditions: given as ranges; a range also covers PI >= approx 50% at <= the upper concentration; read-out: IC50 or PI Xiap. (In general: In fluorescence polarisation assays a small probe gives low polarisation when free and higher when bound to something large.)

Another test addresses cIAP-1 BIR3 domain (Homo sapiens (Human), UniProt Q13490). Description: cIAP-1 in vitro competitive displacement binding assay (fluorescence polarization). Conditions: given as ranges, read-out: IC50 or PI cIAP1.
Test [1] concerns EVSA-T (human breast carcinoma). The test is described as follows: Anti-proliferative activity, Alamar Blue assay, EVSA-T. In kind it is cell-based. Conditions: for inhibition at 10 µM: read-out: EC50 or PI EVSA-T prolif (percentage inhibition). For orientation: The colour change of resazurin is a common sign of viable cells or microbes.
For the next test, the system named is XIAP or cIAP1. The test is described as follows: Assays using XIAP and cIAP1 (result stated for XIAP or cIAP1). In kind it is binding, human. Conditions: against XIAP or cIAP1.
[2] abbreviates: AbuRPFK(5&6FAM)-amide probe (Probe B).
Where [3] appears, read: EVSA-T, 72 hours compound incubation, read-out: EC50 or PI EVSA-T prolif.
Setting [4] is: read-out: EC50 or greater than 50% at 10 μM, EVSA-T cell line.
The mark [5] stands for this setting: read-out: IC50 or at least 50% inhibition of the activity at a concentration of 1 μM.
Setting [6] is: read-out: IC50 or at least 50% inhibition of the activity at a concentration of 10 μM.

What is called EC50 is the concentration needed to bring the measured effect to its halfway point. As for `CN[C@@H](C)C(=O)Nc1ccc2c(n1)OC1(CCCCC1)C(=O)N2c1ccc(Cl)cc1` [Example 7, (2S)-N-[4′-(4-Chlorophenyl)-3′-oxo-3′,4′-dihydrospiro[cyclohexane-1,2′-pyrido[2,3-b][1,4]oxazine]-7′-yl]-2-(methylamino)propanamide hydrochloride], the IC50 at XIAP BIR3 domain was 10 to 1000 nM; on cIAP-1 BIR3 domain (setting [2]) it was 10 to 1000 nM; in the test on XIAP or cIAP1 (setting [5]) it was below 1000 nM; with XIAP or cIAP1 (setting [6]), below 10000 nM. Moreover, the EC50 in test [1] (setting [3]) is 440 nM; in test [1] (setting [4]), below 10000 nM.

As for `CN[C@@H](C)C(=O)Nc1ccc2c(n1)CN(C(C)C(C)C)C(=O)N2c1cccc(Cl)c1` (stereo partly drawn) [Example 36, (S)—N-[1-(3-Chloro-phenyl)-3-(1,2-dimethyl-propyl)-2-oxo-1,2,3,4-tetrahydro-pyrido[3,2-d]pyrimidin-6-yl]-2-methylamino-propionamide], the IC50 was 10 to 1000 nM on XIAP BIR3 domain, 10 to 1000 nM on cIAP-1 BIR3 domain (setting [2]), below 1000 nM with XIAP or cIAP1 (setting [5]) and below 10000 nM in the test on XIAP or cIAP1 (setting [6]). Further, the values for the EC50 in test [1] (setting [3]) and in test [1] (setting [4]) were 880 nM and below 10000 nM, respectively.

As to `CN[C@@H](C)C(=O)Nc1ccc2c(n1)CN(c1cc(Cl)cc(Cl)c1)C(=O)N2c1cc(Cl)cc(Cl)c1` [Example 25, (S)—N-[1,3-Bis-(3,5-dichloro-phenyl)-2-oxo-1,2,3,4-tetrahydro-pyrido[3,2-d]pyrimidin-6-yl]-2-methylamino-propionamide hydrochloride], the IC50 is 10 to 1000 nM on XIAP BIR3 domain, 10 to 1000 nM at cIAP-1 BIR3 domain (setting [2]), below 1000 nM in the test on XIAP or cIAP1 (setting [5]) and below 10000 nM with XIAP or cIAP1 (setting [6]). Moreover, the EC50 in test [1] (setting [3]) was 2300 nM; in test [1] (setting [4]), below 10000 nM.

With `CN[C@@H](C)C(=O)Nc1ccc2c(n1)OC1(CCCC1)C(=O)N2c1ccc(Cl)cc1` [Example 8, (2S)-N-[4′-(4-Chlorophenyl)-3′-oxo-3′,4′-dihydrospiro[cyclopentane-1,2′-pyrido[2,3-b][1,4]oxazine]-7′-yl]-2-(methylamino)propanamide hydrochloride], the IC50 is 10 to 1000 nM at XIAP BIR3 domain, 10 to 1000 nM on cIAP-1 BIR3 domain (setting [2]), below 1000 nM in the test on XIAP or cIAP1 (setting [5]) and below 10000 nM with XIAP or cIAP1 (setting [6]). The EC50 in test [1] (setting [3]) is 190 nM; in test [1] (setting [4]) it was below 10000 nM.

The inhibition is the relative decrease from the control value, in per cent. Take `CN[C@@H](C)C(=O)Nc1ccc2c(n1)CN(C1CCN(C(C)=O)CC1)C(=O)N2c1cccc(Cl)c1` [Example 38, (S)—N-[3-(1-Acetyl-piperidin-4-yl)-1-(3-chloro-phenyl)-2-oxo-1,2,3,4-tetrahydro-pyrido[3,2-d]pyrimidin-6-yl]-2-methylamino-propionamide]: the IC50 at XIAP BIR3 domain is 1000 to 10000 nM; on cIAP-1 BIR3 domain (setting [2]) it was 10 to 1000 nM; in the test on XIAP or cIAP1 (setting [5]), below 1000 nM; with XIAP or cIAP1 (setting [6]) it was below 10000 nM. Moreover, the inhibition at 10 µM in test [1] (EVSA-T) turned out to be 75%. Further, in test [1] (setting [4]), the EC50 is below 10000 nM.

In the case of `CN[C@@H](C)C(=O)Nc1ccc2c(n1)CN(C(C)C1CCC1)C(=O)N2c1cccc(Cl)c1` (stereo partly drawn) [Example 37, (S)-N-[1-(3-Chloro-phenyl)-3-(1-cyclobutyl-ethyl)-2-oxo-1,2,3,4-tetrahydro-pyrido[3,2-d]pyrimidin-6-yl]-2-methylamino-propionamide hydrochloride], the IC50 at XIAP BIR3 domain is 10 to 1000 nM; at cIAP-1 BIR3 domain (setting [2]), 10 to 1000 nM; with XIAP or cIAP1 (setting [5]), below 1000 nM; with XIAP or cIAP1 (setting [6]) it was below 10000 nM. Also, the EC50 in test [1] (setting [3]) was 620 nM; in test [1] (setting [4]) it was below 10000 nM.

In the case of `CN[C@@H](C)C(=O)Nc1ccc2c(n1)OC(C)(C1CCCC1)C(=O)N2c1cccc(Cl)c1` (stereo partly drawn) [Example 13, (S)-N-[1-(3-Chloro-phenyl)-3-cyclopentyl-3-methyl-2-oxo-2,3-dihydro-1H-pyrido[2,3-b][1,4]oxazin-6-yl]-2-methylamino-propionamide hydrochloride], the IC50 at XIAP BIR3 domain is 10 to 1000 nM; at cIAP-1 BIR3 domain (setting [2]), 10 to 1000 nM; with XIAP or cIAP1 (setting [5]), below 1000 nM; with XIAP or cIAP1 (setting [6]), below 10000 nM. Also, the EC50 in test [1] (setting [3]) is 170 nM; in test [1] (setting [4]), below 10000 nM.

`CN[C@@H](C)C(=O)Nc1ccc2c(n1)CN(c1cccc(Cl)c1)C(=O)N2c1cccc(Cl)c1` [Example 24, (S)—N-[1,3-Bis-(3-chloro-phenyl)-2-oxo-1,2,3,4-tetrahydro-pyrido[3,2-d]pyrimidin-6-yl]-2-methylamino-propionamide hydrochloride]: the IC50 on XIAP BIR3 domain is 10 to 1000 nM; at cIAP-1 BIR3 domain (setting [2]) it was 10 to 1000 nM; with XIAP or cIAP1 (setting [5]) it was below 1000 nM; in the test with XIAP or cIAP1 (setting [6]), below 10000 nM. Also, the EC50 in test [1] (setting [3]) was 360 nM; in test [1] (setting [4]), below 10000 nM.

On to `CN[C@@H](C)C(=O)Nc1ccc2c(n1)O[C@@H](Cc1ccccc1)C(=O)N2` [Example 4, (S)—N—((S)-3-Benzyl-2-oxo-2,3-dihydro-1H-pyrido[2,3-b][1,4]oxazin-6-yl)-2-methylamino-propionamide hydrochloride], for which the IC50 on XIAP BIR3 domain was 1000 to 10000 nM; at cIAP-1 BIR3 domain (AVPIK(5&6FAM)-amide probe (Probe A)), 10 to 1000 nM; with XIAP or cIAP1 (setting [5]), below 1000 nM; in the test on XIAP or cIAP1 (setting [6]), below 10000 nM. Further, the inhibition at 10 µM in test [1] (EVSA-T) is -13%.

`CN[C@@H](C)C(=O)Nc1ccc2c(n1)CN(C1CCC(C)(C)CC1)C(=O)N2c1cccc(Cl)c1` [Example 35, (S)-N-[1-(3-Chloro-phenyl)-3-(4,4-dimethyl-cyclohexyl)-2-oxo-1,2,3,4-tetrahydro-pyrido[3,2-d]pyrimidin-6-yl]-2-methylamino-propionamide hydrochloride]: the IC50 was 10 to 1000 nM on XIAP BIR3 domain, 10 to 1000 nM at cIAP-1 BIR3 domain (setting [2]), below 1000 nM with XIAP or cIAP1 (setting [5]) and below 10000 nM in the test with XIAP or cIAP1 (setting [6]). Further, the values for the EC50 in test [1] (setting [3]) and in test [1] (setting [4]) were 650 nM and below 10000 nM, respectively.

Consider `CN[C@@H](C)C(=O)Nc1ccc2c(n1)OC1(Cc3ccccc3C1)C(=O)N2c1ccc(Cl)cc1` [Example 9, (2S)-N-[4′-(4-Chlorophenyl)-3′-oxo-1,3,3′,4′-tetrahydrospiro[indene-2,2′-pyrido[2,3-b][1,4]oxazine]-7′-yl]-2-(methylamino)propanamide hydrochloride], for which the IC50 on XIAP BIR3 domain is 10 to 1000 nM; on cIAP-1 BIR3 domain (setting [2]), 10 to 1000 nM; with XIAP or cIAP1 (setting [5]), below 1000 nM; in the test on XIAP or cIAP1 (setting [6]), below 10000 nM. The EC50 was 120 nM in test [1] (setting [3]) and below 10000 nM in test [1] (setting [4]).

In the case of `CN[C@@H](C)C(=O)Nc1ccc2c(n1)O[C@@](C)(c1ccccc1)C(=O)N2c1ccc(Cl)cc1` [Example 3, (S)—N—[(S)-1-(4-Chloro-phenyl)-3-methyl-2-oxo-3-phenyl-2,3-dihydro-1H-pyrido[2,3-b][1,4]oxazin-6-yl]-2-methylamino-propionamide hydrochloride], the IC50 on XIAP BIR3 domain was 10 to 1000 nM; at cIAP-1 BIR3 domain (setting [2]) it was 10 to 1000 nM; with XIAP or cIAP1 (setting [5]), below 1000 nM; with XIAP or cIAP1 (setting [6]), below 10000 nM. The values for the EC50 in test [1] (setting [3]) and in test [1] (setting [4]) were 280 nM and below 10000 nM, respectively.

With `CN[C@@H](C)C(=O)Nc1ccc2c(n1)OC(C)(C)C(=O)N2c1ccc(Cl)cc1` [Example 6, (S)-N-[1-(4-Chloro-phenyl)-3,3-dimethyl-2-oxo-2,3-dihydro-1H-pyrido[2,3-b][1,4]oxazin-6-yl]-2-methylamino-propionamide hydrochloride], the IC50 on XIAP BIR3 domain was 10 to 1000 nM; on cIAP-1 BIR3 domain (setting [2]), 10 to 1000 nM; in the test on XIAP or cIAP1 (setting [5]), below 1000 nM; with XIAP or cIAP1 (setting [6]), below 10000 nM. The EC50 in test [1] (setting [3]) was 120 nM; in test [1] (setting [4]), below 10000 nM.
